According to patent publication US9682931B2, “Aryloyl(oxy or amino)pentafluorosulfanylbenzene compound, pharmaceutically acceptable salt thereof, and prodrugs thereof” (UBE INDUSTRIES, LTD., priority 2013, dated 2017):
Converted amounts (≈) assume the structure as drawn. Structures can show the parent of a compound that is named as a salt. Where two headings read alike, the source gives them in different places.

Tested on: K562 human leukemia-derived cell lines
Test: K562 human leukemia cell-proliferation inhibition test
Type: cell-based
Method: K562 Human Leukemia Cell-Proliferation Inhibition Test
A cell proliferation inhibition test using K562 cells was performed. The activity in the presence of a test substance was compared to the activity in the presence of green tea polyphenol (GTP). The materials used in the test are as follows.
Cells: K562 human leukemia-derived cell lines (DS Pharma Biomedical Co., Ltd.)
Control Substance: Green Tea Polyphenols, abbreviation: GTP (LKT Laboratories, Inc.)
Culture solution: 10% equine serum-supplemented RPMI1640 medium
A test substance and a control substance were used by dissolving each of them in DMSO. To a solution (0.99 mL) containing K562 cells in a cell concentration of 20,000 cells/mL, a test substance solution or a control substance solution (0.01 mL) was added and the cells were cultured. Seventy two hours later, a part of the cells was stained with trypan blue and viable cells were counted by a counting chamber.
In Table 2, “IC50” denotes the sample concentration inhibiting 50% of cell proliferation

[1] = K562 cells, 72 hours, viable cells counted with trypan blue
[2] = Homo sapiens, K562, 72 h, K562 cells, 72 hours, viable cells counted with trypan blue, read-out: IC50

Row | Compound | IC50 [2] [µg/mL] | also measured
1 | 4-(3,5-dihydroxybenzoylamino)pentafluorosulfanylbenzene [Compound 50] |  | IC50 [1]: 3.5 µg/mL
2 | O=C(Nc1ccc(S(F)(F)(F)(F)F)cc1)c1ccccc1 [Compound 1, 4-benzoylaminopentafluorosulfanylbenzene] |  | IC50 (Homo sapiens, K562, 72 h): 1.5 µg/mL (≈ 4.64 µM)
3 | O=C(Oc1cccc(S(F)(F)(F)(F)F)c1)c1cc(O)c(O)c(O)c1 [Compound 8, 3-(3,4,5-trihydroxybenzoyloxy)pentafluorosulfanylbenzene] | 8.5 (≈ 22.8 µM) | 
4 | O=C(/C=C/c1ccc2c(c1)OCO2)Nc1ccc(S(F)(F)(F)(F)F)cc1 [Compound 19, 4-(3,4-methylenedioxycinnamoylamino)pentafluorosulfanylbenzene] |  | IC50 (Homo sapiens, K562, 72 h): 0.66 µg/mL (≈ 1.68 µM)
5 | COc1cc(/C=C/C(=O)Nc2ccc(S(F)(F)(F)(F)F)cc2)ccc1O [Compound 21, 4-(4-hydroxy-3-methoxycinnamoylamino)pentafluorosulfanylbenzene] | 0.93 (≈ 2.35 µM) | 
6 | O=C(Nc1ccc(S(F)(F)(F)(F)F)cc1)c1c(O)cc(O)cc1O [Compound 23, 4-(2,4,6-trihydroxybenzoylamino)pentafluorosulfanylbenzene] | 4.1 (≈ 11 µM) | 
7 | O=C(/C=C/c1cc(O)c(O)c(O)c1)Nc1ccc(S(F)(F)(F)(F)F)cc1 [Compound 24, 4-(3,4,5-trihydroxycinnamoylamino)pentafluorosulfanylbenzene] | 14 (≈ 35.2 µM) | 
8 | CC(=O)Oc1cc(/C=C/C(=O)Nc2ccc(S(F)(F)(F)(F)F)cc2)cc(OC(C)=O)c1OC(C)=O [Compound 25, 4-(3,4,5-triacetoxycinnamoylamino)pentafluorosulfanylbenzene] | 6.3 (≈ 12 µM) | 
9 | C=CCOc1ccc(C(=O)Nc2ccc(S(F)(F)(F)(F)F)cc2)cc1OC [Compound 28, 4-(4-(2-propenyloxy)-3-methoxybenzoylamino)pentafluorosulfanylbenzene] | 0.8 (≈ 1.95 µM) | 
10 | C=CCc1cc(C(=O)Nc2ccc(S(F)(F)(F)(F)F)cc2)cc(OC)c1O [Compound 30, 4-(4-hydroxy-5-(2-propenyl)-3-methoxybenzoylamino)pentafluorosulfanylbenzene] | 0.9 (≈ 2.2 µM) | 
11 | C=CC(=O)Nc1ccc(S(F)(F)(F)(F)F)cc1 [Compound 31, 4-acryloylaminopentafluorosulfanylbenzene] |  | IC50 (Homo sapiens, K562, 72 h): 0.88 µg/mL (≈ 3.22 µM)
12 | C=CC(=O)Nc1cccc(S(F)(F)(F)(F)F)c1 [Compound 32, 3-acryloylaminopentafluorosulfanylbenzene] |  | IC50 (Homo sapiens, K562, 72 h): 4.6 µg/mL (≈ 16.8 µM)
13 | O=C(Nc1ccc(S(F)(F)(F)(F)F)cc1)c1ccc(CO)o1 [Compound 33, 4-(5-hydroxymethylfuran-2-yl)carbonylaminopentafluorosulfanylbenzene] | 2.7 (≈ 7.87 µM) | 
14 | COc1cc(/C=C/C(=O)Nc2ccc(S(F)(F)(F)(F)F)cc2)ccc1OCC=C(C)C [Compound 37, 4-(4-(3-methyl-2-butenyloxy)-3-methoxycinnamoylamino)pentafluorosulfanylbenzene] | 4.8 (≈ 10.4 µM) | 
15 | C=CCOc1ccc(/C=C/C(=O)Nc2ccc(S(F)(F)(F)(F)F)cc2)cc1OC [Compound 38, 4-(4-(2-propenyloxy)-3-methoxycinnamoylamino)pentafluorosulfanylbenzene] | 0.6 (≈ 1.38 µM) | 
16 | COc1ccc(/C=C/C(=O)Nc2ccc(S(F)(F)(F)(F)F)cc2)cc1OCC=C(C)C [Compound 41, 4-(3-(3-methyl-2-butenyloxy)-4-methoxycinnamoylamino)pentafluorosulfanylbenzene] | 0.81 (≈ 1.75 µM) | 
17 | C/C=C/COc1ccc(/C=C/C(=O)Nc2ccc(S(F)(F)(F)(F)F)cc2)cc1OC [Compound 42, 4-(4-(2-butenyloxy)-3-methoxycinnamoylamino)pentafluorosulfanylbenzene] | 1.7 (≈ 3.78 µM) | 

Row | Compound | IC50 [2] [µg/mL] | also measured
18 | COc1cc(/C=C/C(=O)Nc2ccc(S(F)(F)(F)(F)F)cc2)cc(OC)c1OCC=C(C)C [Compound 43, 4-(4-(3-methyl-2-butenyloxy)-3,5-dimethoxycinnamoylamino)pentafluorosulfanylbenzene] | 2.8 (≈ 5.67 µM) | 
19 | C=CC(C)Oc1ccc(/C=C/C(=O)Nc2ccc(S(F)(F)(F)(F)F)cc2)cc1OC (stereo not shown) [Compound 44, 4-(4-(1-methyl-2-propenyloxy)-3-methoxycinnamoylamino)pentafluorosulfanylbenzene] | 1 (≈ 2.22 µM) | 
20 | COc1cc(C(=O)Nc2ccc(S(F)(F)(F)(F)F)cc2)ccc1O [Compound 45, 4-(4-hydroxy-3-methoxybenzoylamino)pentafluorosulfanylbenzene] | 0.51 (≈ 1.38 µM) | 
21 | C=CCc1cc(/C=C/C(=O)Nc2ccc(S(F)(F)(F)(F)F)cc2)cc(OC)c1O [Compound 46, 4-(4-hydroxy-5-(2-propenyl)-3-methoxycinnamoylamino)pentafluorosulfanylbenzene] | 2.5 (≈ 5.74 µM) | 
22 | C/C=C/Cc1cc(/C=C/C(=O)Nc2ccc(S(F)(F)(F)(F)F)cc2)cc(OC)c1O [Compound 47, 4-(4-hydroxy-5-(2-butenyl)-3-methoxycinnamoylamino)pentafluorosulfanylbenzene] | 3.5 (≈ 7.79 µM) | 
23 | C=CC(C)(C)Oc1cccc(C(=O)Nc2ccc(S(F)(F)(F)(F)F)cc2)c1 [Compound 48, 4-(3-(1,1-dimethyl-2-propenyloxy)benzoylamino)pentafluorosulfanylbenzene] | 1.9 (≈ 4.66 µM) | 
24 | O=C(/C=C/c1ccc(O)cc1O)Nc1ccc(S(F)(F)(F)(F)F)cc1 [Compound 51, 4-(2,4-dihydroxycinnamoylamino)pentafluorosulfanylbenzene] | 1.2 (≈ 3.15 µM) | 
25 | COc1ccc(/C=C/C(=O)Nc2ccc(S(F)(F)(F)(F)F)cc2)cc1O [Compound 52, 4-(3-hydroxy-4-methoxycinnamoylamino)pentafluorosulfanylbenzene] | 0.28 (≈ 0.708 µM) | 
26 | COc1cc(/C=C/C(=O)Nc2ccc(S(F)(F)(F)(F)F)cc2)cc(OC)c1O [Compound 53, 4-(4-hydroxy-3,5-dimethoxycinnamoylamino)pentafluorosulfanylbenzene] | 0.9 (≈ 2.12 µM) | 
27 | O=C(/C=C/c1ccc(O)c(O)c1)Nc1ccc(S(F)(F)(F)(F)F)cc1 [Compound 56, 4-(3,4-dihydroxycinnamoylamino)pentafluorosulfanylbenzene] |  | IC50 [1]: 0.83 µg/mL (≈ 2.18 µM)
28 | O=C(Nc1ccc(S(F)(F)(F)(F)F)cc1)c1ccc(O)c(F)c1 [Compound 57, 4-(4-hydroxy-3-fluorobenzoylamino)pentafluorosulfanylbenzene] | 3.3 (≈ 9.24 µM) | 
29 | O=C(Nc1ccc(S(F)(F)(F)(F)F)cc1)c1ccc(F)c(O)c1 [Compound 58, 4-(3-hydroxy-4-fluorobenzoylamino)pentafluorosulfanylbenzene] | 5.3 (≈ 14.8 µM) | 
30 | COc1cc(C(=O)Nc2ccc(S(F)(F)(F)(F)F)cc2)ccc1[N+](=O)[O-] [Compound 59, 4-(4-nitro-3-methoxybenzoylamino)pentafluorosulfanylbenzene] | 1.1 (≈ 2.76 µM) | 
31 | COc1cc(C(=O)Nc2ccc(S(F)(F)(F)(F)F)cc2)ccc1N [Compound 60, 4-(4-amino-3-methoxybenzoylamino)pentafluorosulfanylbenzene] | 0.1 (≈ 0.271 µM) | 
32 | Nc1ccc(C(=O)Nc2ccc(S(F)(F)(F)(F)F)cc2)cc1 [Compound 61, 4-(4-aminobenzoylamino)pentafluorosulfanylbenzene] | 0.086 (≈ 0.254 µM) | 
33 | O=C(Nc1ccc(S(F)(F)(F)(F)F)cc1)c1ccc([N+](=O)[O-])cc1 [Compound 62, 4-(4-nitrobenzoylamino)pentafluorosulfanylbenzene] | 0.78 (≈ 2.12 µM) | 
34 | Nc1ccc(C(=O)Nc2ccc(S(F)(F)(F)(F)F)cc2)cc1 [Compound 63, 4-(4-aminobenzoylamino)pentafluorosulfanylbenzene hydrochloride salt] |  | IC50 (Homo sapiens, K562, 72 h): 0.85 µg/mL
